According to patent publication US7709479B1, “Quinazoline derivatives and their use as pharmaceuticals” (AstraZeneca, priority 1999, dated 2010):

Columns and labels:
[1] = tested on: MCF-7 cells; experiment: In vitro cell proliferation assay, Assay 1 (CyQUANT cell density); type: cell-based; conditions: Homo sapiens, MCF7, 72 h; MCF-7, 3 days with compound; read-out: concentration giving 50% inhibition of cell proliferation
From the text: (b) In Vitro Cell Proliferation Assay
These and other assays can be used to determine the ability of a test compound to inhibit the growth of adherent mammalian cell lines, for example the human tumour cell line MCF7.
Assay 1: MCF-7 (ATCC HTB-22) or other adherent cells were typically seeded at 1×10^3 cells per well (excluding the peripheral wells) in DMEM (Sigma Aldrich) without phenol red, plus 10% foetal calf serum, 1% L-glutamine and 1% penicillin/streptomycin in 96 well tissue culture treated clear plates (Costar). The following day (day 1), the media was removed from a no treatment control plate and the plate stored at −80° C. The remaining plates were dosed with compound (diluted from 10 mM stock in DMSO using DMEM (without phenol red, 10% FCS, 1% L-glutamine, 1% penicillin/streptomycin). Untreated control wells were included on each plate. After 3 days in the presence/absence of compound (day 4) the media was removed and the plates stored at −80° C. Twenty four hours later the plates were thawed at room temperature and cell density determined using the CyQUANT cell proliferation assay kit (c-7026/c-7027 Molecular Probes Inc.) according to manufacturers directions. Briefly, 200 μl of a cell lysis/dye mixture (10 μl of 20× cell lysis buffer B, 190 μl of sterile water, 0.25 μl of CyQUANT GR dye) was added to each well and the plates incubated at room temperature for 5 minutes in the dark. The fluorescence of the wells was then measured using a fluorescence microplate reader (gain 70, 2 reads per well, 1 cycle with excitation 485 nm and emission 530 nm using a CytoFluor plate reader (PerSeptive Biosystems Inc.)). The values from day 1 and day 4 (compound treated) together with the values from the untreated cells were used to determine the dilution range of a test compound that gave 50% inhibition of cell proliferation. Compound no. 1 in Table 1 was effective in this test at 8.03 μM and compound no. 101 in Table 4 was effective in this test at 1.06 μM. […] The optical density of the wells was then determined at 690 nm wavelength using a Titertek Multiscan plate reader. […]

[2] = tested on: MCF-7 cells; experiment: In vitro cell proliferation assay, Assay 2 (BrdU incorporation); type: cell-based; conditions: Homo sapiens, MCF7; MCF-7, 48 hours with compound, 2 hour labelling; read-out: concentration giving 50% inhibition of BrdU incorporation
[3] = tested on: MCF7 cells; experiment: In vitro cell cycle analysis assay (FACS DNA content); type: cell-based, human; conditions: 24 hours
Description: This assay determines the ability of a test compound to arrest cells in specific phases of the cell cycle. Many different mammalian cell lines could be used in this assay and MCF7 cells are included here as an example. MCF-7 cells were seeded at 3×10^5 cells per T25 flask (Costar) in 5 ml DMEM (no phenol red 10% FCS, 1% L-glutamine 1% penicillin/streptomycin). Flasks were then incubated overnight in a humidified 37° C. incubator with 5% CO2. The following day 1 ml of DMEM (no phenol red 10% FCS, 1% L-glutamine 1% penicillin/streptomycin) carrying the appropriate concentration of test compound solubilised in DMSO was added to the flask. A no compound control treatments was also included (0.5% DMSO). The cells were then incubated for a defined time (usually 24 hours) with compound. After this time the media was aspirated from the cells and they were washed with 5 ml of prewarmed (37° C.) sterile PBSA, then detached from the flask by brief incubation with trypsin and followed by resuspension in 10 ml of 1% Bovine Serum Albumin (BSA, Sigma-Aldrich Co.) in sterile PBSA. The samples were then centrifuged at 2200 rpm for 10 min. The supernatant was aspirated and the cell pellet was resuspended in 200 μl of 0.1% (w/v) Tris sodium citrate, 0.0564% (w/v) NaCl, 0.03% (v/v) Nonidet NP40, [pH 7.6]. Propridium Iodide (Sigma Aldrich Co.) was added to 40 μg/ml and RNAase A (Sigma Aldrich Co.) to 100 μg/ml. The cells were then incubated at 37° C. for 30 minutes. The samples were centrifuged at 2200 rpm for 10 min, the supernatant removed and the remaining pellet (nuclei) resuspended in 200 μl of sterile PBSA. Each sample was then syringed 10 times using 21 gauge needle. The samples were then transferred to LPS tubes and DNA content per cell analysed by Fluorescence activated cell sorting (FACS) using a FACScan flow cytometer (Becton Dickinson). Typically 25000 events were counted and recorded using CellQuest v1.1 software (Verity Software). Cell cycle distribution of the population was calculated using Modfit software (Verity Software) and expressed as percentage of cells in G0/G1, S and G2/M phases of the cell cycle.

## COc1cc2ncnc(Nc3ccc(NC(=O)c4ccccc4)cc3)c2cc1OC [Compound 1]
[1]
  IC50: 8030 nM
[2]
  IC50: 1240 nM
[3]; 25 μM
  % Cells in G1: 25.82%
  % Cells in G2/M: 56.47%
  % Cells in S: 17.71%

## COc1cc2c(Nc3ccc(NC(=O)c4ccccc4)cc3)ncnc2cc1OCCCN1CCOCC1 [Compound 101]
[1]
  IC50: 1060 nM
[2]
  IC50: 159 to 209 nM
[3]; 2.12 μM
  % Cells in G1: 19.69%
  % Cells in G2/M: 68.21%
  % Cells in S: 12.4%

## COc1cc2ncnc(Nc3ccc(C(=O)NCc4ccc(F)cc4)cc3)c2cc1OC [Compound 557]
[1]
  IC50: 1570 nM
